In US20110172217A1, “RING-FUSED MORPHOLINE DERIVATIVE HAVING PI3K-INHIBITING ACTIVITY” (Shionogi & Co., Ltd., priority 2008, published 2011):

Assays:
PI-3 kinase γ [1] = target: T1, PI-3 kinase γ (Homo sapiens, UniProt P48736); assay: PI3Kγ inhibitory activity, PI3-kinase HTRF assay (inhibition ratio); type: biochemical; settings: 0.5 h, compound at 50 μmol/L
Procedure: For each compound synthesized in the above Examples, PI3Kγ inhibitory activity was measured.
The PI3Kγ inhibitory activity of a compound was evaluated using PI3-kinase HTRF™ assay (Millipore) according to the following procedure:
To each well of a testing plate, 5 μL of a compound solution containing 10% DMSO (200 μmol/L or 40 μmol/L as the concentration of the compound), 5 μL of a substrate solution (40 μmol/L phosphatidylinositol (4,5)-bisphosphate, 20 mmol/L MgCl2, 10 mmol/L DTT), and 5 μL of a enzyme solution (80 μg/mL PI-3 kinase γ, 10 mmol/L MgCl2, 5 mmol/L DTT) were added, and then allowed to stand for 10 minutes.
Then, 5 μL of a reaction solution (40 μmol/L ATP, 10 mmol/L MgCl2, 5 mmol/L DTT) was added thereto. After reacting for 30 minutes at room temperature, 5 μL of a solution containing EDTA and biotinylated phosphatidylinositol (3,4,5)-triphosphate were added to quench the reaction.
5 μL of a detection reagent containing a europium-labeled anti-GST antibody, the GST-tagged PH domain, and allophycocyanin-labeled streptavidin was added thereto. After 18 hours, HTRF (excitation wavelength: 330 nm, measured wavelengths: 620 nm and 665 nm) was measured.
HTRF ratio was defined as the value obtained by dividing the amount of fluorescence obtained at the measured wavelength 665 nm by the amount of fluorescence obtained at 620 nm. The HTRF ratio in the absence of a compound was defined as 100% activity and the HTRF ratio in the absence of PI-3 kinase γ was defined as 0% activity to calculate an inhibition ratio which was defined as the PI3Kγ inhibitory activity of a compound at 50 μmol/L or 10 μmol/L.

[2] = Solubility test in artificial intestinal juice pH 6.8; type: physicochemical; settings: kinetic from dmso stock, artificial intestinal juice pH 6.8, 1% DMSO, 25° C.
Procedure: The solubility of a compound was determined under a condition in which 1% DMSO was added. 10 mmol/L compound solution was prepared using DMSO, and then 6 μL of the compound solution was added to 594 μL of artificial intestinal juice in pH 6.8 (to 250 mL of 0.2 mol/L potassium dihydrogen phosphate reagent solution was added 118 mL of 0.2 mol/L NaOH reagent solution and water to provide a final volume of 1000 mL). After standing at 25° C. for 16 hours, the mixed solution was filtered with suction. The filtrate was diluted twice with methanol/water (1/1), and then a concentration in the filtration was measured with HPLC or LC/MS/MS by the absolute calibration method.

[3] = target: T2, human ether-a-go-go related gene (hERG) channel (Homo sapiens, UniProt Q12809); assay: hERG test, whole-cell patch-clamp, IKr; type: cell-based; settings: 1 μmol/L compound; HEK293 cell expressing hERG
T2 construct: expressed in transfected cells; host or cells: HEK293
Source text: For the purpose of risk evaluation of QT interval extension of electrocardiogram, the activity on delayed rectification K^+ current (IKr), which plays an important role in a cardiac ventricle repolarization process, was examined using the HEK293 cell that was made to express human ether-a-go-go related gene (hERG) channel.
Using an automatic patch-clamp system (PatchXpress 7000A, Axon Instruments Inc.), by a whole-cell patch-clamp method, after the cell was maintained at a membrane potential of −80 mV, IKr induced upon applying depolarizing stimulation of +50 mV for 2 seconds and further applying repolarizing stimulation of −50 mV for 2 seconds was recorded. After generated electric current became stable, a test substance dissolved at an intended concentration in extracellular fluid (137 mmol/L NaCl, 4 mmol/L KCl, 1.8 mmol/L CaCl2.2H2O, 1 mmol/L MgCl2.6H2O, 10 mmol/L glucose, 10 mmol/L HEPES (4-(2-hydroxyethyl)-1-piperazineethanesulfonic acid), pH=7.4) was applied to the cell for 10 minutes under room temperature condition. From the obtained IKr, the absolute value of the maximum tail current was measured using analysis software (DataXpress ver. 1, Molecular Devices Corporation) and the value of the electric current in a maintained membrane potential as baseline. Moreover, an inhibition ratio for the maximum tail current prior to the application of the test substance was calculated and then compared with a group of media-application (0.1% dimethylsulfoxide solution) to evaluate influence of the test substance on IKr.

[4] = Metabolic stability test, pooled human liver microsome; type: in vitro ADME; settings: 2 μmol/L compound; human liver microsome 0.5 mg protein/mL, NADPH, 37° C.
Procedure: After a subject compound was reacted for a certain time using a commercially available pooled human liver microsome, a reacted sample and an unreacted sample are compared to calculate a survival ratio, and then the degree of metabolism in the liver was evaluated.
0.2 mL of a buffer solution (50 mmol/L of Tris-HCl in pH 7.4, 150 mmol/L of potassium chloride, and 10 mmol/L of magnesium chloride) containing a human liver microsome of 0.5 mg protein/mL was reacted in the presence of 1 mmol/L NADPH at 37° C. for 0 or 30 minutes (oxidative reaction). After reacting, 50 μL of the reaction solution was added to 100 μL of a solution of methanol/acetonitrile (1/1 (v/v)), mixed, and then centrifuged at 3000 rpm for 15 minutes. The test compound in the supernatant was quantitated with LC/MS/MS. The amount of the compound at a reaction time of 0 minute was defined as 100% and, based on that, the percentage of the test compound remained after reacting for 30 minutes was calculated.

PI-3 kinase γ [5] = target: T1, PI-3 kinase γ; assay: PI3Kγ inhibitory activity (Ki value); type: biochemical; settings: test ATP concentration 10 μmol/L
Procedure: The PI3Kγ inhibitory activity (Ki value) of a compound was evaluated according to the following procedure:
5 μL of a compound solution containing 10% DMSO and 200 μmol/L of a compound was changed to 5 μL of a compound solution containing 10% DMSO and either 200, 64, 20, 6.4, 2, 0.64, or 0.20 μmol/L of the compound (optionally, this is diluted to a lower concentration). Using a method similar to the method for measuring PI3Kγ inhibitory activity, inhibition ratios were measured in the presence of the compound at 50, 16, 5, 1.6, 0.5, 0.16, and 0.05 μmol/L (optionally, a lower concentration). Then an IC50 value was calculated by a logistic approximation method or the linear regression method using two concentrations that across 50% inhibition. Separately, the ATP concentration in the reaction solution (40 μmol/L ATP, 10 mmol/L MgCl2, 5 mmol/L DTT) at the time of the start of a reaction in the absence of the compound was changed to 80, 40, 20, 10, 5, 2.5, 1.25, or 0.625 μmol/L. Then, HTRF ratios were measured by a similar method. The value obtained by subtracting the HTRF ratio at each ATP concentration from the HTRF ratio in the absence of PI-3 kinase γ was defined as the value obtained by multiplying reaction rate (v) at each ATP concentration with a constant. The Michaelis-Menten constant Km was then calculated by the Lineweaver-Burk plot method. The Ki value of a compound was calculated by the following formula.
Ki=IC50 value/(1+10 μmol/L (test ATP concentration)/Km(μmol/L))

T1 sequence (P48736 whole entry): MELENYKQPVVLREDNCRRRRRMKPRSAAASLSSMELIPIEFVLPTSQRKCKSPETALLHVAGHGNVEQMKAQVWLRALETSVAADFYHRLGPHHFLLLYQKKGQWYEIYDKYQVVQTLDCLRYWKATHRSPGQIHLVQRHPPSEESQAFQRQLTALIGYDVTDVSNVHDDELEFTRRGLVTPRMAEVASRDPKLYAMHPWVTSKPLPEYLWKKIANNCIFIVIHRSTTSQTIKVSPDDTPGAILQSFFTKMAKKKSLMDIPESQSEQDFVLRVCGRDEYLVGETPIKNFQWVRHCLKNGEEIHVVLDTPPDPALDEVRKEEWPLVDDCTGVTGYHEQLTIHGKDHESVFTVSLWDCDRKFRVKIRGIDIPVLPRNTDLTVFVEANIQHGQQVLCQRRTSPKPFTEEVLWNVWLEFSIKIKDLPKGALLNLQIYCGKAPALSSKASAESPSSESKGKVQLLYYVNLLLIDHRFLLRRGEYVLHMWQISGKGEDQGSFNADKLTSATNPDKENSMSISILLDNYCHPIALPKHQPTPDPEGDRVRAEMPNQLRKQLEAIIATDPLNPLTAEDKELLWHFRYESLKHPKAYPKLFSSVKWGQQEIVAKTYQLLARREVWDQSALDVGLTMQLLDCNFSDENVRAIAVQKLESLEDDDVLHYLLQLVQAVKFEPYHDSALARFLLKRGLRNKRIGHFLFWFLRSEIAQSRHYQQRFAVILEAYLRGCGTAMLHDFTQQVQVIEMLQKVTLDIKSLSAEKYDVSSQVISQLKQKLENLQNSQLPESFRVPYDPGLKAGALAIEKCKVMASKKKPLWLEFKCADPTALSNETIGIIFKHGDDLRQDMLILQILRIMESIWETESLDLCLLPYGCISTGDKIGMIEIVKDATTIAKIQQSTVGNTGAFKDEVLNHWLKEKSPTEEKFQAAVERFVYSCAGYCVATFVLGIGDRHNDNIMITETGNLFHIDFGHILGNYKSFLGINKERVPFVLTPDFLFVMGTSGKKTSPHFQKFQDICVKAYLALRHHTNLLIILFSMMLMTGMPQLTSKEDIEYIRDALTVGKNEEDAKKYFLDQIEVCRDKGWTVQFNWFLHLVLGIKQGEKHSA
T2 sequence (Q12809 whole entry): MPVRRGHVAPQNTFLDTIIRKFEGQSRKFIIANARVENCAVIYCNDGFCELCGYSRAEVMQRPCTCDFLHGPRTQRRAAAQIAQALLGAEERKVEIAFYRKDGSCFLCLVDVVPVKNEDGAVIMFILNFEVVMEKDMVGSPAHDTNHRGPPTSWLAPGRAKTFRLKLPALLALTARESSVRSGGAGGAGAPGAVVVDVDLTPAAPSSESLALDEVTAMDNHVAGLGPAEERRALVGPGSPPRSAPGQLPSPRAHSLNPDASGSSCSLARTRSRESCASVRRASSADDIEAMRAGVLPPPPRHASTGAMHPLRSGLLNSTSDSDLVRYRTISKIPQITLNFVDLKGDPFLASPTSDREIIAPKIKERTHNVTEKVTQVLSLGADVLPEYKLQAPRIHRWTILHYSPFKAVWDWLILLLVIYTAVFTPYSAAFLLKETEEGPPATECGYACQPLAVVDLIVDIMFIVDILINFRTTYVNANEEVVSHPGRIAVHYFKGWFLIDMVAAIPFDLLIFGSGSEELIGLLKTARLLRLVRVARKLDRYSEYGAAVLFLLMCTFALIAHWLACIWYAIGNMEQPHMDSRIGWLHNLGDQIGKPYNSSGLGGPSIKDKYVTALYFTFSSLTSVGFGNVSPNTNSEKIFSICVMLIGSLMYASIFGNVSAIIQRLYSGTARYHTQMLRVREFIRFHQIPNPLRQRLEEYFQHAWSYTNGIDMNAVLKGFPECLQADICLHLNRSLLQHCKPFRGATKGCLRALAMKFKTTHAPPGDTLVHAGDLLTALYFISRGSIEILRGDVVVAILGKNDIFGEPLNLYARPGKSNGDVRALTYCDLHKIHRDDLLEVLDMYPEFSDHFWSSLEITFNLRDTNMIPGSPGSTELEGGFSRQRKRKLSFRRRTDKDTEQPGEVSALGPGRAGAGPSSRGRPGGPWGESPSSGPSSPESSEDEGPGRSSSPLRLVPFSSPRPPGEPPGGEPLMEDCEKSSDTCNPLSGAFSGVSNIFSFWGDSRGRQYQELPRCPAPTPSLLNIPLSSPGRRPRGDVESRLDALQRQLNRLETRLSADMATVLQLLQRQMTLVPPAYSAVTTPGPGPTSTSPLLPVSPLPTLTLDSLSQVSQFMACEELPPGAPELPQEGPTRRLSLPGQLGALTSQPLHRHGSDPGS

Compound	inhibition at 50 µM (PI-3 kinase γ [1]) [%]	also measured
O=C(O)c1ccc(-c2ccc3c(n2)N(C(=O)Nc2ccccc2)CCO3)s1 [Compound I-109]	≥ 95	solubility at 16 h [2]: > 50 µM; hERG inhibition ratio for the maximum tail current (IKr) [3]: 1%
O=C(O)c1ccc(Nc2cnc3c(c2)OCCN3C(=O)Nc2ccccc2)cc1 [Compound I-139]	≥ 95	solubility at 16 h [2]: > 50 µM; percentage of test compound remained after reacting for 30 minutes [4]: 83%; hERG inhibition ratio for the maximum tail current (IKr) [3]: 8.7%
O=C(O)c1ccc(Nc2ccc3c(n2)N(C(=O)Nc2ccccc2)CCO3)cc1 [Compound I-146]	≥ 95	Ki (PI-3 kinase γ [5]): 46 nM; percentage of test compound remained after reacting for 30 minutes [4]: 100%
O=C(O)c1ccc(-c2ccc3c(n2)N(C(=O)Nc2cccnc2)CCO3)cc1 [Compound I-208]	≥ 95	Ki (PI-3 kinase γ [5]): 31 nM
O=C(O)COc1ccccc1Nc1ccc2c(n1)N(C(=O)Nc1ccccc1)CCO2 [Compound I-248]	≥ 95	Ki (PI-3 kinase γ [5]): 25 nM; solubility at 16 h [2]: > 50 µM
CCN(CC)c1ccc(Nc2cnc3c(c2)OCCN3C(=O)Nc2ccccc2)cc1 [Compound I-310]	≥ 95	–
CCCCNS(=O)(=O)c1cccc(Nc2cnc3c(c2)OCCN3C(=O)Nc2ccccc2)c1 [Compound I-311]	81	–
COc1ccc(Nc2cnc3c(c2)OCCN3C(=O)Nc2ccccc2)cc1 [Compound I-313]	92	–
C#Cc1cccc(Nc2cnc3c(c2)OCCN3C(=O)Nc2ccccc2)c1 [Compound I-314]	78	–
CC(C)(C)NC(=O)c1ccccc1Nc1cnc2c(c1)OCCN2C(=O)Nc1ccccc1 [Compound I-315]	93	–
O=C(Nc1ccccc1)N1CCOc2cc(Nc3ccc4ncccc4c3)cnc21 [Compound I-316]	87	–
O=C(Nc1ccccc1)N1CCOc2cc(Nc3ccc4ncsc4c3)cnc21 [Compound I-317]	≥ 95	–
N#Cc1ccc(Nc2cnc3c(c2)OCCN3C(=O)Nc2ccccc2)cc1 [Compound I-318]	≥ 95	–
Cc1ccc(Nc2cnc3c(c2)OCCN3C(=O)Nc2ccccc2)cc1F [Compound I-319]	92	–
O=C(Nc1ccccc1)N1CCOc2cc(Nc3ccc4c(c3)CCO4)cnc21 [Compound I-320]	95	–
COC(=O)c1ccc(-c2ccc(Nc3cnc4c(c3)OCCN4C(=O)Nc3ccccc3)cc2)cc1 [Compound I-321]	76	–
O=C(Nc1ccccc1)N1CCOc2cc(Nc3ccc(Oc4ccccc4)cc3)cnc21 [Compound I-322]	78	–
O=C(Nc1ccccc1)N1CCOc2cc(Nc3ccc(S(=O)(=O)N4CCOCC4)cc3)cnc21 [Compound I-323]	89	–
O=C(Nc1ccccc1)N1CCOc2cc(Nc3ccc(CN4CCS(=O)(=O)CC4)cc3)cnc21 [Compound I-325]	82	–
COC(=O)c1ccc(Nc2cnc3c(c2)OCCN3C(=O)Nc2ccccc2)cc1OC [Compound I-327]	86	–
CCN(CC)c1cc(F)cc(Nc2cnc3c(c2)OCCN3C(=O)Nc2ccccc2)c1 [Compound I-328]	91	–
COc1ccc(-c2ccc3c(n2)N(C2=NC(=O)C(C)(C)S2)CCO3)cc1OC [Compound I-330]	95	Ki (PI-3 kinase γ [5]): 27 nM
